Test results published in article PMC2362044, “A potent nonporphyrin class of photodynamic therapeutic agent: cellular localisation, cytotoxic potential and influence of hypoxia” (British Journal of Cancer, 2005).
pEC50: −log10 of the molar value. Read-outs that look alike come from different tables or passages of the source.

What was measured:
[1] = test system: A2780cp70 cells; test: Colorimetric survival (MTT) assay after photo-irradiation, normoxia; type: cell-based; conditions: Homo sapiens, A2780/CP70, A2780cp70, 3 h incubation
Procedure: (§1) All cell lines unless otherwise stated were obtained from the American Type Culture Collection. HeLa, MRC5, HT-1080, MDA-MB-231, MCF-7 and T47-D cells were cultured in minimum essential medium (MEM) supplemented with 10% (v v^−1) foetal calf serum (FCS), 1% (v v^−1) non-essential amino acids, 50 U ml^−1 penicillin, 50 μg ml^−1 streptomycin, 20 mM HEPES and 1% (v v^−1) L-glutamine (Gibco-BRL). SW480, SW620 (obtained from Professor D Croke, Royal College of Surgeons, Dublin), A2780 and A2780cp70 cells (Obtained from Professor R Brown, Cancer Research UK, Beatson Laboratories, Glasgow) were cultured in RPMI-1640 medium plus the above-mentioned supplements. All cells were maintained in 5% CO2 (v v^−1) and 21% O2 (v v^−1) at 37°C unless otherwise stated.
(§2) Cells were seeded in 96-well flat-bottomed microtitre plates (5000 cells well^−1) and incubated at 37°C in a 5% CO2 incubator for 24 h. Cells were then incubated with varying concentrations of photosensitiser (1 × 10^−9 to 1 × 10^−4 M) in the dark for 3 h at 37°C. The ADPM compound-laden medium was then removed, the cells were washed with PBS and fresh culture medium was added to each well. This was followed by light irradiation with a broad-spectrum red light source (600–750 nm) via a Waldmann PDT1200L light delivery system. For this study, fluences (light exposures) of either 8 or 16 J cm^−2, at a dose rate of 80 mW cm^−2, were used. Following irradiation, the cells were incubated for a further 48 h before being assessed for cell viability by a standard MTT assay (Sigma). The subsequent colour change produced by viable cells was quantified using a plate reader (VICTOR^2 1420 multilabel HTS counter, Wallac). […] The dark toxicity of each compound was also assessed.
(§3) Prism ([…]) was used to graph the data obtained from the MTT assays and the uptake/clearance experiments. This program allows nonlinear regression analysis and the generation of sigmoidal dose–response curves. Prism also automatically calculates EC50 values. Statistical analysis was performed using the ANOVA test (Prism). Significant differences were detected using the Bonferroni multiple comparison test. P-values <0.05 were considered statistically significant.

[2] = test system: MDA-MB-231 cells; test: as above; type: cell-based; conditions: Homo sapiens, MDA-MB-231, 3 h incubation
Procedure: as §1, §2, §3

[3] = test system: HT-1080 cells; test: as above; type: cell-based; conditions: Homo sapiens, HT-1080, 3 h incubation
Procedure: as §1, §2, §3

[4] = test system: MCF-7 cells; test: as above; type: cell-based; conditions: Homo sapiens, MCF7, MCF-7, 3 h incubation
Procedure: as §1, §2, §3

[5] = test system: SW620 cells; test: as above; type: cell-based; conditions: Homo sapiens, SW-620, SW620, 3 h incubation
Procedure: as §1, §2, §3

[6] = test system: HeLa cells; test: as above; type: cell-based; conditions: Homo sapiens, normoxia 21% oxygen, 3 h incubation
Procedure: as §1, §2, §3

[7] = test system: T47-D cells; test: as above; type: cell-based; conditions: Homo sapiens, T47D, 3 h incubation
Procedure: as §1, §2, §3

[8] = test system: MRC-5 cells; test: as above; type: cell-based; conditions: Homo sapiens, MRC5, MRC-5, normoxia 21% oxygen, 3 h incubation
Procedure: as §1, §2, §3

[9] = test system: A2780 cells; test: as above; type: cell-based; conditions: Homo sapiens, A2780, 3 h incubation
Procedure: as §1, §2, §3

[10] = test system: SW480 cells; test: as above; type: cell-based; conditions: Homo sapiens, SW480, 3 h incubation
Procedure: as §1, §2, §3

[11] = parameters: method as in Gorman et al, 2004; conditions: ref Gorman et al, 2004, cited from earlier work; for strong absorbance band: formulated in CrEL/PBS
[12] = test system: HeLa cells; test: Flow cytometric assessment of apoptosis (Annexin-V/PI); type: cell-based, human
Procedure: Evaluation of apoptotic and necrotic cell populations was achieved using the ApoTarget Annexin-V FITC Apoptosis kit (BioSource International, Inc.). Cells (2.0 × 10^5) were seeded into 25 cm^2 flasks and treated with either ADPM01 or ADPM06 at respective EC50 or 10-fold EC50 concentration levels for 3 h, followed by irradiation with red light at 16 J cm^−2, as described above. Subsequently, cells were incubated for 4 and 16 h, with floating and adherent cells being collected at each time point by centrifugation and then stained with Annexin-V and propidium iodide (PI) as per the manufacturer's instructions. The percentage of cells at different phases of cell death, namely nonapoptotic (Annexin-V^−/PI^−), early apoptotic (Annexin-V^+/PI^−), and necrotic or late-stage apoptotic (Annexin-V^+/PI^+), was quantified using a EPICS XL-MCL flow cytometer (Coulter) and analysed using System II software, with at least 5000 cells being analysed for each run.

[13] = test system: human tumour cell lines; test: Light-induced toxicity (MTT) assays over a broad range of cell lines; type: cell-based; conditions: for pEC50: Homo sapiens, read-out: EC50 values, range between the different cell lines; for EC50 values, light-induced toxicity (in words): broad range of human tumour cell lines
Procedure: as §1, §2, §3

[14] = 0 J cm^−2, read-out: EC50 (M) (dark)
[15] = 8 J cm^−2, read-out: EC50 (M) (8 J cm^−2)
[16] = 16 J cm^−2, read-out: EC50 (M) (16 J cm^−2)
[17] = 10-fold EC50 concentration, 16 h post-irradiation
[18] = EC50 concentration, 4 h post-irradiation
[19] = 8 J cm^−2, all cell lines of Table 1
[20] = 16 J cm^−2, all cell lines of Table 1

**Q.** What does the source list for `F[B-]1(F)n2c(-c3ccccc3)cc(-c3ccccc3)c2N=C2C(c3ccccc3)=CC(c3ccccc3)=[N+]21` [ADPM01]?
**A.** EC50 [1, 14]: > 0.0001 M; EC50 [1, 15]: 6.8e-06 M; EC50 [1, 16]: 2.8e-06 M; EC50 [2, 14]: 1.2e-05 M; EC50 [2, 15]: 5.6e-06 M; EC50 [2, 16]: 2.6e-07 M; EC50 [3, 14]: > 0.0001 M; EC50 [3, 15]: 3.4e-05 M; EC50 [3, 16]: 2.2e-05 M; EC50 [4, 14]: > 0.0001 M; EC50 [4, 15]: 3.4e-06 M; EC50 [4, 16]: 1.9e-06 M; EC50 [5, 14]: > 0.0001 M; EC50 [5, 15]: 5.6e-06 M; EC50 [5, 16]: 2.8e-06 M; EC50 [6, 14]: 2.7e-05 M; EC50 [6, 15]: 2.8e-06 M; EC50 [6, 16]: 9.2e-07 M; EC50 [7, 14]: > 0.0001 M; EC50 [7, 15]: 5.6e-06 M; EC50 [7, 16]: 5.3e-06 M; EC50 [8, 14]: > 0.0001 M; EC50 [8, 15]: 3.1e-06 M; EC50 [8, 16]: 5e-07 M; EC50 [9, 14]: > 0.0001 M; EC50 [9, 15]: 5.1e-06 M; EC50 [9, 16]: 4.5e-06 M; EC50 [10, 14]: > 0.0001 M; EC50 [10, 15]: 7.6e-06 M; EC50 [10, 16]: 8e-07 M; strong absorbance band [11]: 658 nm; fluorescence quantum yield (Φf) [11]: 0.34; cells in lower left quadrant (Annexin-V−/PI−, nonapoptotic) [12, 17]: 42.5%; cells in lower right quadrant (Annexin-V+/PI−, early apoptotic) [12, 17]: 16.5%; cells in upper left quadrant (PI+, Annexin-V−) [12, 17]: 1.0%; cells in upper right quadrant (Annexin-V+/PI+, necrotic or late-stage apoptotic) [12, 17]: 40.0%; cells in lower left quadrant (Annexin-V−/PI−, nonapoptotic) [12, 18]: 95.3%; cells in lower right quadrant (Annexin-V+/PI−, early apoptotic) [12, 18]: 4.40%; cells in upper left quadrant (PI+, Annexin-V−) [12, 18]: 0.16%; cells in upper right quadrant (Annexin-V+/PI+, necrotic or late-stage apoptotic) [12, 18]: 0.12%; pEC50 [13, 19]: 4.47 to 5.55; pEC50 [13, 20]: 4.66 to 6.59; EC50 values, light-induced toxicity (in words) [13]: micro-molar range

**Q.** With `COc1ccc(C2=[N+]3C(=Nc4c(-c5ccccc5)c(Br)c(-c5ccc(OC)cc5)n4[B-]3(F)F)C(c3ccccc3)=C2Br)cc1` [ADPM06] as the compound, how does the EC50 [1, 15] read?
**A.** Its EC50 is 6.2e-08 M.

**Q.** What about the EC50 [1, 16] of the same compound?
**A.** The EC50 was 2.7e-08 M.

**Q.** And the EC50 [2, 15]?
**A.** Its EC50 is 1.4e-07 M.

**Q.** And the EC50 [2, 16]?
**A.** Its EC50 is 7.5e-08 M.

**Q.** And the EC50 [3, 15]?
**A.** The EC50 was 7.9e-08 M.

**Q.** And the EC50 [3, 16]?
**A.** The EC50 was 3.7e-08 M.

**Q.** What about the EC50 [4, 15] of the same compound?
**A.** The EC50 was 1.2e-07 M.

**Q.** What about the EC50 [4, 16] of the same compound?
**A.** The EC50 was 7.5e-08 M.

**Q.** And the EC50 [5, 15]?
**A.** The EC50 was 7.5e-08 M.

**Q.** What about the EC50 [5, 16] of the same compound?
**A.** Its EC50 is 6e-08 M.

**Q.** And the EC50 [6, 14]?
**A.** The EC50 was > 0.0001 M.

**Q.** What about the EC50 [6, 15] of the same compound?
**A.** The EC50 was 6.3e-08 M.

**Q.** What about the EC50 [6, 16] of the same compound?
**A.** Its EC50 is 4.1e-08 M.

**Q.** What about the EC50 [7, 15] of the same compound?
**A.** The EC50 was 1.6e-06 M.

**Q.** And the EC50 [7, 16]?
**A.** The EC50 was 6.3e-07 M.

**Q.** And the EC50 [8, 14]?
**A.** The EC50 was > 0.0001 M.

**Q.** What about the EC50 [8, 15] of the same compound?
**A.** The EC50 was 3.7e-08 M.

**Q.** What about the EC50 [8, 16] of the same compound?
**A.** Its EC50 is 1.4e-08 M.

**Q.** What about the EC50 [9, 15] of the same compound?
**A.** Its EC50 is 1e-07 M.

**Q.** What about the EC50 [9, 16] of the same compound?
**A.** Its EC50 is 3.5e-08 M.

**Q.** And the EC50 [10, 15]?
**A.** The EC50 was 5.4e-06 M.

**Q.** And the EC50 [10, 16]?
**A.** The EC50 was 4.2e-08 M.

**Q.** And the strong absorbance band [11]?
**A.** Its strong absorbance band is 683 nm.

**Q.** And the “fluorescence quantum yield (Φf)” value [11]?
**A.** The value was 0.1.

**Q.** What about the “cells in lower left quadrant (Annexin-V−/PI−, nonapoptotic)” value [12, 17] of the same compound?
**A.** The value was 42.3%.

**Q.** What about the “cells in lower right quadrant (Annexin-V+/PI−, early apoptotic)” value [12, 17] of the same compound?
**A.** The value was 34.1%.

**Q.** What about the “cells in upper left quadrant (PI+, Annexin-V−)” value [12, 17] of the same compound?
**A.** The value was 0.6%.

**Q.** And the “cells in upper right quadrant (Annexin-V+/PI+, necrotic or late-stage apoptotic)” value [12, 17]?
**A.** The value was 23.0%.

**Q.** And the “cells in lower left quadrant (Annexin-V−/PI−, nonapoptotic)” value [12, 18]?
**A.** The value was 95.6%.

**Q.** What about the “cells in lower right quadrant (Annexin-V+/PI−, early apoptotic)” value [12, 18] of the same compound?
**A.** Its value is 3.88%.

**Q.** And the “cells in upper left quadrant (PI+, Annexin-V−)” value [12, 18]?
**A.** The value was 0.20%.

**Q.** What about the “cells in upper right quadrant (Annexin-V+/PI+, necrotic or late-stage apoptotic)” value [12, 18] of the same compound?
**A.** The value was 0.30%.

**Q.** What about the pEC50 [13, 19] of the same compound?
**A.** The pEC50 was 5.27 to 7.43.

**Q.** What about the pEC50 [13, 20] of the same compound?
**A.** Its pEC50 is 6.20 to 7.85.

**Q.** What about the “EC50 values, light-induced toxicity (in words)” value [13] of the same compound?
**A.** The value was “nano-molar range”.
